# Assay results taken from patent US4122184A, “Benzimidazole insecticides” (priority 1977, dated 1978).
# Tests used:
# [1] = test system: Bagworms; assay: Field trial, contact poison test; assay type: in vivo; parameters: key: 0-9 scale: 0 = 0-10% mortality, 9 = 91-100% mortality
# Description: Infested plants are placed in 6 oz. prescription bottles filled with water to keep them from wilting. Cellucotton is wrapped around the plant stem and squeezed into the bottle neck to prevent the insects from drowning.
# A DeVilbiss Special Atomizer (5004) is used at 10 psi to spray the test plant with different concentrations of compounds. The atomizer is held at arm's length to prevent blowing the insects off the host plant. After treating, the bottles are placed on a table covered with brown wrapping paper to catch the dead insects as they drop from the plant. The plants are spaced so the leaves or plants are not touching one another.
# The results are read at 24, 48, and 72 hours when applicable. The rating scale is 0 to 9 where 0 = 0-10 percent and 9 = 91-100 percent mortality.
# Using the above methods, field trials were carried out against species of 5 orders of insects. The results, which are summarized in the following tables, give the average mortality for the particular insect with a given benzimidazole for each concentration employed. […] These tables contain all results obtained during the summer trials.
# [2] = test system: Tussock Moth; assay: Field trial (first summer), stomach; assay type: in vivo; settings: 750 ppm
# [3] = test system: Zebra Caterpillar; assay: Field trial (first summer), stomach; assay type: in vivo; settings: 500 ppm
# [4] = test system: Asparagus Beetles Larvae; assay: Field trial, contact poison test; assay type: in vivo
# Outline: (§1)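 Mortality after direct spraying was scored at 24, 48 and 72 hours where applicable, using a 0–9 rating tied to 10% bands. Plants bearing insects received atomized compound at 10 psi over a range of concentrations.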
# [5] = test system: Corn Earworm; assay: Field trial, contact poison test; assay type: in vivo
# Outline: as §1
# [6] = test system: Fall Webworm; assay: Field trial, contact poison test; assay type: in vivo
# Outline: as §1
# [7] = test system: Imported Cabbage Worm; assay: Field trial, contact poison test; assay type: in vivo
# Outline: as §1
# [8] = test system: Mexican Bean Beetle; assay: Field trial (first summer), topical; assay type: in vivo, Epilachna varivestis
# Procedure: In a variation of the above test, 1 microliter of a test solution containing a predetermined number of micrograms of benzimidazole was applied directly to larvae or adult insects.
# During the previous summer similar field trials were conducted employing the same tests as heretofore but with some additional species of insects not included in the later tests. The results listed below are for tests in which an insect mortality was established by a given application route and at a given concentration in a particular test. The same 0 - 9 scoring system is used as is the designation of compounds by alphabetical symbols.
# [9] = test system: Tussock Moth; assay: Field trial (first summer), contact; assay type: in vivo; settings: 750 ppm
# [10] = test system: Buffalo Tree Hopper; assay: Field trial (first summer), contact; assay type: in vivo; settings: 125 ppm
# [11] = test system: American Roach; assay: Field trial (first summer), contact; assay type: in vivo; settings: 500 ppm
# [12] = test system: German Roach; assay: Field trial (first summer), contact; assay type: in vivo; settings: 500 ppm
# [13] = test system: Walnut Caterpillar; assay: Field trial, stomach poison test; assay type: in vivo
# Outline: (§2)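 Leaves from infested plants sprayed (10 psi) or dipped in test compound at several concentrations, air-dried, then five or ten insects placed per dish, one or two replicates. Mortality scored 0 to 9 at 24, 48 and 72 h, averaged per concentration.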
# [14] = test system: Eastern Tent Caterpillar; assay: Field trial, stomach poison test; assay type: in vivo
# Outline: as §2
# [15] = test system: Red-Legged Grasshopper Adults; assay: Field trial, stomach poison test; assay type: in vivo
# Outline: as §2
# [16] = test system: Elm Leaf Beetle; assay: Field trial, stomach poison test; assay type: in vivo
# Outline: as §2
# [17] = test system: Bagworms; assay: Field trial, stomach poison test; assay type: in vivo
# Outline: as §2
# [18] = test system: Fall Webworm; assay: Field trial, stomach poison test; assay type: in vivo
# Outline: as §2
# [19] = test system: Citrus Rust Mite (CRM); assay: Miticide test, acute mortality, foliar spray; assay type: in vivo
# Procedure: Citrus cuttings were obtained and prepared for testing within 24 hours prior to inoculation with citrus rust mites. To prepare the cuttings, terminals of branches 12 to 14 inches in length were cut from temple orange trees, immediately placed in tap water and taken into the laboratory. Uniform hardwood cuttings, 3 to 4 inches in length, were cut from the branches, all but one hardened leaf was removed from the cuttings, and the remaining leaf was wiped clean with a cotton pad soaked in 10% ethanol solution. Each cutting was immediately placed in tap water in a test tube with the closed leaf extending out of the test tube. Then, a ring of melted lanolin was applied around the petiole to prevent migration of mites from the leaf. One cutting was used for each replicate.
# When the leaves were dry immediately after cleaning, citrus rust mites were transferred to the test leaves by cutting a heavily infested colony leaf (from a source colony maintained on citrus seedlings) into 20 to 22 sections (approximately 0.25 by 0.5 inches in size) and using forceps to place 1 section on each leaf cutting. As the section became desiccated the mites moved to the whole leaf and in 20 hours the sections were removed from the leaves for treatment application.
# Treatments were applied within 24 hours after inoculation by removing the cuttings from the test tube and submerging the leaves in the treatment solution for 5 seconds by hand and immediately returning the cutting to the test tube. […]
# The treated cuttings were stored in the greenhouse for 24 hours before evaluation under a binocular disecting microscope in the laboratory. In evaluating the results of the miticide test, each treated cutting was removed from the test tube, observed for live and dead mites at 14 × magnification, and returned immediately to the test tube. A scale of 0-9 was used as before.
compound,measurement,setting,value
"O=[N+]([O-])c1cc(C(F)(F)F)cc2nc(C(F)(F)F)[nH]c12 [A, 2,6-bis(trifluoromethyl)-4-nitrobenzimidazole]",average mortality rating,[1]; 125 ppm,0 (0-10 percent)
same,average mortality rating,[1]; 250 ppm,4
same,average mortality rating,[1]; 500 ppm,4
same,average mortality rating,[1]; 750 ppm,1
same,average mortality rating,[1]; 1000 ppm,0 (0-10 percent)
same,average mortality rating,[1]; 1500 ppm,0 (0-10 percent)
same,insect mortality rating,[2],9 (91-100 percent mortality)
same,insect mortality rating,[3],7
same,average mortality rating,[4]; 10 ppm,8
same,average mortality rating,[4]; 25 ppm,8
same,average mortality rating,[4]; 50 ppm,9 (91-100 percent mortality)
same,average mortality rating,[5]; 62.5 ppm,0 (0-10 percent)
same,average mortality rating,[5]; 125 ppm,0 (0-10 percent)
same,average mortality rating,[5]; 250 ppm,0 (0-10 percent)
same,average mortality rating,[5]; 500 ppm,0 (0-10 percent)
same,average mortality rating,[5]; 750 ppm,1
same,average mortality rating,[6]; 125 ppm,3
same,average mortality rating,[6]; 250 ppm,5
same,average mortality rating,[6]; 500 ppm,3
same,average mortality rating,[6]; 750 ppm,9 (91-100 percent mortality)
same,average mortality rating,[7]; 125 ppm,3
same,average mortality rating,[7]; 250 ppm,4
same,average mortality rating,[7]; 500 ppm,3
same,average mortality rating,[7]; 750 ppm,7
same,insect mortality rating,[8]; .25 μg/μl,9 (91-100 percent mortality)
same,insect mortality rating,[9],9 (91-100 percent mortality)
same,insect mortality rating,[10],9 (91-100 percent mortality)
same,insect mortality rating,[11],9 (91-100 percent mortality)
same,insect mortality rating,[12],8
same,average mortality rating,[13]; 50 ppm,1
same,average mortality rating,[13]; 100 ppm,3
same,average mortality rating,[13]; 250 ppm,3
same,average mortality rating,[14]; 250 ppm,0 (0-10 percent)
same,average mortality rating,[14]; 500 ppm,0 (0-10 percent)
same,average mortality rating,[14]; 1000 ppm,0 (0-10 percent)
same,average mortality rating,[15]; 10 ppm,0 (0-10 percent)
same,average mortality rating,[15]; 25 ppm,4
same,average mortality rating,[15]; 50 ppm,6
same,average mortality rating,[16]; 125 ppm,3
same,average mortality rating,[16]; 250 ppm,0 (0-10 percent)
same,average mortality rating,[16]; 500 ppm,5
same,average mortality rating,[17]; 500 ppm,1
same,average mortality rating,[17]; 750 ppm,0 (0-10 percent)
same,average mortality rating,[17]; 1000 ppm,0 (0-10 percent)
same,average mortality rating,[17]; 1500 ppm,1
same,average mortality rating,[17]; 2500 ppm,0 (0-10 percent)
same,average mortality rating,[17]; 5000 ppm,1
same,average mortality rating,[18]; 250 ppm,9 (91-100 percent mortality)
same,average mortality rating,[18]; 500 ppm,0 (0-10 percent)
same,average mortality rating,[18]; 750 ppm,0 (0-10 percent)
same,average mortality rating,[18]; 1000 ppm,0 (0-10 percent)
"CC(C)OC(=O)n1c(C(F)(F)F)nc2c([N+](=O)[O-])cc(C(F)(F)F)cc21 [I, isopropyl 2,6-bis(trifluoromethyl)-4-nitro-1-benzimidazolecarboxylate]",average mortality rating,[1]; 125 ppm,1
same,average mortality rating,[1]; 250 ppm,4
same,average mortality rating,[1]; 500 ppm,5
same,average mortality rating,[1]; 750 ppm,2
same,average mortality rating,[1]; 1000 ppm,1
same,average mortality rating,[1]; 1500 ppm,0 (0-10 percent)
same,acute mortality rating,"[19]; 6.25 ppm, after 24 hours",5
same,acute mortality rating,"[19]; 12.5 ppm, after 24 hours",7
same,acute mortality rating,"[19]; 25 ppm, after 24 hours",9 (91-100 percent mortality)
same,acute mortality rating,"[19]; 50 ppm, after 24 hours",9 (91-100 percent mortality)
same,acute mortality rating,"[19]; 100 ppm, after 24 hours",9 (91-100 percent mortality)
same,average mortality rating,[13]; 50 ppm,0 (0-10 percent)
same,average mortality rating,[13]; 100 ppm,1
same,average mortality rating,[13]; 250 ppm,2
same,average mortality rating,[14]; 250 ppm,0 (0-10 percent)
same,average mortality rating,[14]; 500 ppm,0 (0-10 percent)
same,average mortality rating,[14]; 1000 ppm,0 (0-10 percent)
same,average mortality rating,[15]; 10 ppm,0 (0-10 percent)
same,average mortality rating,[15]; 25 ppm,4
same,average mortality rating,[15]; 50 ppm,4
same,average mortality rating,[16]; 125 ppm,0 (0-10 percent)
same,average mortality rating,[16]; 250 ppm,0 (0-10 percent)
same,average mortality rating,[16]; 500 ppm,3
same,average mortality rating,[17]; 500 ppm,1
same,average mortality rating,[17]; 750 ppm,0 (0-10 percent)
same,average mortality rating,[17]; 1000 ppm,1
same,average mortality rating,[17]; 1500 ppm,0 (0-10 percent)
same,average mortality rating,[17]; 2500 ppm,1
same,average mortality rating,[17]; 5000 ppm,1
"CCCCCCOC(=O)n1c(C(F)(F)F)nc2c([N+](=O)[O-])cc(C(F)(F)F)cc21 [E, n-hexyl 2,6-bis(trifluoromethyl)-4-nitro-1-benzimidazolecarboxylate]",acute mortality rating,"[19]; 6.25 ppm, after 48 hours",4
same,acute mortality rating,"[19]; 12.5 ppm, after 48 hours",8
same,acute mortality rating,"[19]; 25 ppm, after 48 hours",9 (91-100 percent mortality)
same,acute mortality rating,"[19]; 50 ppm, after 48 hours",9 (91-100 percent mortality)
same,acute mortality rating,"[19]; 100 ppm, after 48 hours",9 (91-100 percent mortality)
same,insect mortality rating,[2],5
same,insect mortality rating,[3],5
same,insect mortality rating,[8]; .0625 μg/μl,9 (91-100 percent mortality)
